In brackets after ≈: the same amount, converted by molar mass. Positions of bridges follow the written chain, without caps; N, C: chain ends. Non-standard residues stand in square brackets, D forms with d. Residues, ends and D or L forms follow the SMILES beside them. ξ: configuration not given here. *: point of attachment. Octanoyl(7-Me) = CC(C)CCCCCC(=O)*; Hexanoyl(4ξ-Me) = CCC(C)CCC(=O)*; X2 = CC(=O)[C@H](CC(N)=O)C(=O)*; Lauroyl = CCCCCCCCCCCC(=O)*; Decanoyl = CCCCCCCCCC(=O)*; dOrn = NCCC[C@@H](N)C(=O)O; Octanoyl = CCCCCCCC(=O)*; Orn = NCCC[C@H](N)C(=O)O; Dap = NC[C@H](N)C(=O)O; Hexanoyl = CCCCCC(=O)*; Alloc = C=CCOC(=O)*
What follows are compounds tested on Escherichia coli ATCC 25922. Conditions: ATCC 25922.
Type: cell-based
In short: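 Broth microdilution in MHB per CLSI; inoculum 2×10^5 CFU mL^−1 from log-phase TSB cultures at OD600 0.5. Plates incubated 16 hours at 37° C with shaking at 220 rpm. MIC is the lowest concentration preventing visible growth.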

| Structure (SMILES) | Minimum inhibitory concentration (MIC) [µg/mL] |
| --- | --- |
| C=CCOC(=O)NC[C@H](NC(=O)[C@H](Cc1c[nH]c2ccccc12)NC(=O)[C@@H](CCCN)NC(=O)CNC(=O)[C@H](CCCN)NC(=O)[C@@H](CCCN)NC(=O)[C@@H](Cc1c[nH]c2ccccc12)NC(=O)[C@@H](Cc1ccc(O)cc1)NC(=O)[C@@H](CO)NC(=O)CCCCCCC)C(=O)N[C@H](C(=O)N[C@@H](CC(N)=O)C(=O)NCC(N)=O)[C@@H](C)CC [ΔG13-Dap(Alloc)9-C8] (Octanoyl-[dS][dY][dW][dOrn][Orn]G[dOrn]W[Dap](Alloc)ING-NH2) | 2 to 4 |
| CC[C@H](C)[C@H](NC(=O)[C@@H](NC(=O)[C@H](Cc1c[nH]c2ccccc12)NC(=O)[C@@H](C)NC(=O)CNC(=O)[C@H](CCCN)NC(=O)[C@@H](CCCN)NC(=O)[C@@H](Cc1c[nH]c2ccccc12)NC(=O)[C@@H](Cc1ccc(O)cc1)NC(=O)[C@@H](CO)NC(=O)CCCCCC(C)C)[C@@H](C)O)C(=O)N[C@@H](CC(N)=O)C(=O)NCC(=O)NCC(N)=O [Ala7 (D-Orn→D-Ala), FA-sywoOGaWTINGG-CONH2] ({Octanoyl(7-Me)}-[dS][dY][dW][dOrn][Orn]G[dA]WTINGG-NH2) | >64 |
| CC[C@H](C)[C@H](NC(=O)[C@@H](NC(=O)[C@H](Cc1c[nH]c2ccccc12)NC(=O)[C@@H](CCCN)NC(=O)CNC(=O)[C@H](C)NC(=O)[C@@H](CCCN)NC(=O)[C@@H](Cc1c[nH]c2ccccc12)NC(=O)[C@@H](Cc1ccc(O)cc1)NC(=O)[C@@H](CO)NC(=O)CCCCCC(C)C)[C@@H](C)O)C(=O)N[C@@H](CC(N)=O)C(=O)NCC(=O)NCC(N)=O [Ala5 (Orn→Ala), FA-sywoAGoWTINGG-CONH2] ({Octanoyl(7-Me)}-[dS][dY][dW][dOrn]AG[dOrn]WTINGG-NH2) | 32 (≈ 20.3 µM) |
| C=CCOC(=O)NC[C@H](NC(=O)[C@H](Cc1c[nH]c2ccccc12)NC(=O)[C@@H](CCCN)NC(=O)CNC(=O)[C@H](CCCN)NC(=O)[C@@H](CCCN)NC(=O)[C@@H](Cc1c[nH]c2ccccc12)NC(=O)[C@@H](Cc1ccc(O)cc1)NC(=O)[C@@H](CO)NC(=O)CCCCCC(C)C)C(=O)N[C@H](C(=O)N[C@@H](CC(N)=O)C(=O)NCC(=O)NCC(N)=O)[C@@H](C)CC [Dap(Alloc)] ({Octanoyl(7-Me)}-[dS][dY][dW][dOrn][Orn]G[dOrn]W[Dap](Alloc)INGG-NH2) | 1 to 2 |
| CC[C@H](C)[C@H](NC(=O)[C@H](CCSC)NC(=O)[C@H](Cc1c[nH]c2ccccc12)NC(=O)[C@@H](CCCN)NC(=O)CNC(=O)[C@H](CCCN)NC(=O)[C@@H](CCCN)NC(=O)[C@@H](Cc1c[nH]c2ccccc12)NC(=O)[C@@H](Cc1ccc(O)cc1)NC(=O)[C@@H](CO)NC(=O)CCCCCC(C)C)C(=O)N[C@@H](CC(N)=O)C(=O)NCC(=O)NCC(N)=O [Met9-CONH2] ({Octanoyl(7-Me)}-[dS][dY][dW][dOrn][Orn]G[dOrn]WMINGG-NH2) | 2 (≈ 1.21 µM) |
| CC[C@H](C)[C@H](NC(=O)[C@@H](NC(=O)[C@H](Cc1c[nH]c2ccccc12)NC(=O)[C@@H](CCCN)NC(=O)CNC(=O)[C@H](CCCN)NC(=O)[C@@H](CCCN)NC(=O)[C@@H](Cc1c[nH]c2ccccc12)NC(=O)[C@@H](Cc1ccc(O)cc1)NC(=O)[C@@H](CO)NC(=O)CCCCCC(C)C)[C@@H](C)O)C(=O)N[C@@H](CC(N)=O)C(=O)NCC(=O)NCC(=O)O [Linear Laterocidine (Thr9-COOH)] ({Octanoyl(7-Me)}-[dS][dY][dW][dOrn][Orn]G[dOrn]WTINGG-OH) | 4 to 8 |
| C[C@@H](N=[N+]=[N-])[C@H](N)C(=O)O [(2S,3R)-2-amino-3-azidobutanoic acid] | 2 to 4 |
| CC[C@H](C)[C@@H]1NC(=O)[C@@H](NC(=O)[C@H](Cc2c[nH]c3ccccc23)NC(=O)[C@@H](CCCN)NC(=O)CNC(=O)[C@H](CCCN)NC(=O)[C@@H](CCCN)NC(=O)[C@@H](Cc2c[nH]c3ccccc23)NC(=O)[C@@H](Cc2ccc(O)cc2)NC(=O)[C@@H](CO)NC(=O)CCCCCC(C)C)[C@@H](C)OC(=O)[C@@H](C)NC(=O)[C@@H](CO)NC(=O)CNC1=O [Compound R12] ({Octanoyl(7-Me)}-[dS][dY][dW][dOrn][Orn]G[dOrn]WTIG[dS][dA]; ester 9-C; N-terminus assumed) | 1 to 2 |
| CC[C@H](C)[C@@H]1NC(=O)[C@@H](NC(=O)[C@H](Cc2c[nH]c3ccccc23)NC(=O)[C@@H](CCCN)NC(=O)CNC(=O)[C@H](CCCN)NC(=O)[C@@H](CCCN)NC(=O)[C@@H](Cc2c[nH]c3ccccc23)NC(=O)[C@@H](Cc2ccc(O)cc2)NC(=O)[C@@H](CO)NC(=O)CCCCCC(C)C)[C@@H](C)OC(=O)[C@H](C)NC(=O)[C@@H](CO)NC(=O)CNC1=O [Compound R10] ({Octanoyl(7-Me)}-[dS][dY][dW][dOrn][Orn]G[dOrn]WTIG[dS]A; ester 9-C; N-terminus assumed) | 1 to 2 |
| CCC(C)CCC(=O)N[C@H](CO)C(=O)N[C@H](Cc1ccc(O)cc1)C(=O)N[C@H](Cc1c[nH]c2ccccc12)C(=O)N[C@H](CCCN)C(=O)N[C@@H](CCCN)C(=O)NCC(=O)N[C@H](CCCN)C(=O)N[C@@H](Cc1c[nH]c2ccccc12)C(=O)N[C@@H]1C(=O)N[C@@H]([C@@H](C)CC)C(=O)NCC(=O)N[C@@H](CO)C(=O)N[C@H](C)C(=O)O[C@@H]1C (stereo partly shown) [Compound R7] ({Hexanoyl(4ξ-Me)}-[dS][dY][dW][dOrn][Orn]G[dOrn]WTIGS[dA]; ester 9-C; N-terminus assumed) | 1 (≈ 0.639 µM) |

These compounds were tested on E. coli. Conditions: not given.
Type: cell-based
Experimental: Minimum inhibitory concentration (MIC) was determined by broth microdilution according to CLSI guidelines. Blood agar plates were inoculated with glycerol stocks of Escherichia coli ATCC 25922, E. coli ATCC 25922 MCR-1, E. coli MCR-1 (clinical isolate from Utrecht Medical Center, NL), E. coli EQAS MCR-2 (clinical isolate from Wageningen University and Research, NL), Kiebsielia pneumoniae ATCC 11228, K. pneumoniae ATCC 13883, K. pneumonia 2048 (clinical isolate from Vrije Universiteit Amsterdam Medical Center, NL), K. pneumonia JS-123 (clinical isolate from Utrecht Medical Center, NL), Acinetobacter baumannii ATCC 17961, A. baumannil ATCC 17978, A. baumannii 2018-006 (clinical isolate from Rijksinstituut voor Volksgezondheid en Milieu, NL), A. baumannii MDR (clinical isolate from Vrije Universiteit Amsterdam Medical Center, NL), Pseudomonas aeruginosa ATCC 27853, P. aeruginosa PAO1, P. aeruginosa NRZ-03961 (Reference strain from Das Nationale Referenzzentrum für gramnegative Krankenhauserreger, DE), P. aeruginosa M-120 (clinical isolate from Leiden University Medical Center, NL) and Staphylococcus aureus USA300 (clinical isolate from Texas Children's Hospitalm, USA). E. coli 25922 MCR1 was grown on LB agar supplemented with kanamycin. The inoculated agar plates were then incubated for 16 hours at 37° C. Individually grown colonies were subsequently used to inoculate 3 mL aliquots of TSB that were then incubated at 37° C. with shaking at 220 rpm. In parallel, the compounds to be assessed were serially diluted with Mueller-Hinton broth (MHB) in polypropylene 96-well plates (50 μL in each well). Once the OD600 of the bacterial suspensions reached 0.5, the bacteria were diluted with MHB (final concentration 2×10^5 CFU mL^−1) and added to the microplates containing the test compounds (50 μL to each well, final volume: 100 μL). The well-plates were sealed with an adhesive membrane and after 16 hours of incubation at 37° C. with shaking at 220 rpm the wells were visually inspected for bacterial growth. MIC values were defined as the lowest concentration of the compound that prevented visible growth of bacteria.
MIC values were determined for the lipid analogues of brevicidine.
MIC values were determined for the position 9 analogues of linear brevicidine.

| Structure (SMILES) | E. coli MIC [µg/mL] |
| --- | --- |
| CCC(C)CCC(=O)N[C@H](CC(N)=O)C(=O)N[C@H](Cc1ccc(O)cc1)C(=O)N[C@H](Cc1c[nH]c2ccccc12)C(=O)N[C@H](CCCN)C(=O)N[C@@H](CCCN)C(=O)NCC(=O)N[C@H](CCCN)C(=O)N[C@@H](Cc1c[nH]c2ccccc12)C(=O)N[C@@H](Cc1ccccc1)C(=O)N[C@H](C(=O)NCC(N)=O)[C@@H](C)CC (stereo partly shown) [Und(9-Phe)-NH2] ({Hexanoyl(4ξ-Me)}-[dN][dY][dW][dOrn][Orn]G[dOrn]WFIG-NH2) | <0.20 |
| CCCCCCCCCC(=O)N[C@H](CC(N)=O)C(=O)N[C@H](Cc1ccc(O)cc1)C(=O)N[C@H](Cc1c[nH]c2ccccc12)C(=O)N[C@H](CCCN)C(=O)N[C@@H](CCCN)C(=O)NCC(=O)N[C@H](CCCN)C(=O)N[C@@H](Cc1c[nH]c2ccccc12)C(=O)N[C@@H]1C(=O)N[C@@H]([C@@H](C)CC)C(=O)NCC(=O)N[C@@H](CO)C(=O)O[C@@H]1C [Brev-C10] (Decanoyl-[dN][dY][dW][dOrn][Orn]G[dOrn]WTIGS; ester 9-C) | 1.56 |
| CCC(C)CCC(=O)N[C@H](CC(N)=O)C(=O)N[C@H](Cc1ccc(O)cc1)C(=O)N[C@H](Cc1c[nH]c2ccccc12)C(=O)N[C@H](CCCN)C(=O)N[C@@H](CCCN)C(=O)NCC(=O)N[C@H](CCCN)C(=O)N[C@@H](Cc1c[nH]c2ccccc12)C(=O)N[C@@H](Cc1c[nH]c2ccccc12)C(=O)N[C@H](C(=O)NCC(N)=O)[C@@H](C)CC (stereo partly shown) [Und(9-Trp)-NH2] ({Hexanoyl(4ξ-Me)}-[dN][dY][dW][dOrn][Orn]G[dOrn]WWIG-NH2) | 0.78 |
| CCCCCC(=O)N[C@H](CC(N)=O)C(=O)N[C@H](Cc1ccc(O)cc1)C(=O)N[C@H](Cc1c[nH]c2ccccc12)C(=O)N[C@H](CCCN)C(=O)N[C@@H](CCCN)C(=O)NCC(=O)N[C@H](CCCN)C(=O)N[C@@H](Cc1c[nH]c2ccccc12)C(=O)N[C@@H]1C(=O)N[C@@H]([C@@H](C)CC)C(=O)NCC(=O)N[C@@H](CO)C(=O)O[C@@H]1C [Brev-C6] (Hexanoyl-[dN][dY][dW][dOrn][Orn]G[dOrn]WTIGS; ester 9-C) | 25 |
| CC[C@H](C)[C@@H]1NC(=O)[C@@H](NC(=O)[C@H](Cc2c[nH]c3ccccc23)NC(=O)[C@@H](CCCN)NC(=O)CNC(=O)[C@H](CCCN)NC(=O)[C@@H](CCCN)NC(=O)[C@@H](Cc2c[nH]c3ccccc23)NC(=O)[C@@H](Cc2ccc(O)cc2)NC(=O)[C@@H](CC(N)=O)C(C)=O)[C@@H](C)OC(=O)[C@H](CO)NC(=O)CNC1=O [Brev-C2] (X2-[dY][dW][dOrn][Orn]G[dOrn]WTIGS; ester 8-C) | 50 |
| CCCCCCCCCCCC(=O)N[C@H](CC(N)=O)C(=O)N[C@H](Cc1ccc(O)cc1)C(=O)N[C@H](Cc1c[nH]c2ccccc12)C(=O)N[C@H](CCCN)C(=O)N[C@@H](CCCN)C(=O)NCC(=O)N[C@H](CCCN)C(=O)N[C@@H](Cc1c[nH]c2ccccc12)C(=O)N[C@@H]1C(=O)N[C@@H]([C@@H](C)CC)C(=O)NCC(=O)N[C@@H](CO)C(=O)O[C@@H]1C [Brev-C12] (Lauroyl-[dN][dY][dW][dOrn][Orn]G[dOrn]WTIGS; ester 9-C) | 3.12 |

Source: US20240140991A1, “ANTIBIOTIC NATURAL PRODUCT ANALOGUES” (THE QUEEN'S UNIVERSITY OF BELFAST, priority 2021, published 2024)
